Results on 21 molecules are retold here after US4127720A, “Pyrimido[2,1-a]isoquinoline derivatives having antiallergy activity” (priority 1977, dated 1978).

Read-outs that look alike come from different tables or passages of the source.

Data set [1] has as its system reagin-mediated rat Passive Cutaneous Anaphylaxis (PCA). As to the kind of experiment: Reagin-mediated rat Passive Cutaneous Anaphylaxis (PCA) screening test. Type of data set: in vivo, Sprague-Dawley rats. The procedure:
The reagin-mediated rat Passive Cutaneous Anaphylaxis (PCA) screening test used to evaluate the present compounds is generally regarded as one of the best animal models for use in predicting the antiallergy activity of test compounds in man. Briefly, the method consists of passive sensitization of skin sites on the test animals with reaginic antibodies followed after 24 hours by administration of the test drug and antigen challenge. The allergic response is measured by use of Evans' blue dye and is evaluated by the spot diameter at the injection side. Details of the test are provided below.
A substituted ovalbumin antigen is used both as immunogen and challenging antigen. The antigen is prepared as follows: 500 mg. ovalbumin (EA) and 500 mg. K2 CO3 are dissolved in 25 ml. distilled H2 O and stirred at room temperature for 5 minutes. Five hundred (500) mg. dinitrobenzene sulfonic acid, Na^+ salt, (previously recrystallized from hot absolute ethanol) is then added slowly with continued stirring. The reaction mixture is then immediately placed in the dark and allowed to proceed for 2 hours with constant stirring. After 2 hours the mixture is placed in suitable dialysis tubing and dialyzed against 5 changes (4 liters each) of distilled H2 O at 5° C. After dialysis the product is lyophilized and stored at room temperature in a brown or amber container. The antigen obtained will appear as a light yellow, amorphous solid which is very soluble in water or saline. It is designated as DNP denatured ovalbumin (DNP-d EA).
Adult, male Sprague-Dawley rats are used as a source or reagin-rich antisera for the PCA model. Immunization is by a combination of DNP-d EA on Al(OH)3 gel and B. pertussis vaccine. Preparation of the DNP-d EA - gel immunogen is as follows: Dissolve the DNP-d EA in TBS so as to give a concentration of 10 mg./ml. Slowly add 1 ml. of this solution to 10 ml. Al(OH)3 gel (10 mg. solids/ml.) with constant stirring at room temperature. Stir the mixture an additional 30 minutes to insure a uniform adsorption of antigen on gel.
The resulting preparation is then used in combination with phase I B. pertussis vaccine to immunize male S/D rats as follows: For each rat administer 0.1 ml. DNP-d EA - gel suspension intramuscularly in each hind leg (200 μg DNP-d EA and 2 mg. gel total dose). Follow these injections by the intraperitoneal administration of 1.0 ml. B. pertussis vaccine (10-20 × 10^9 organisms). The use of light ether anesthesia during this procedure is recommended to insure proper intramuscular and intraperitoneal injections. Nine days following immunization (but no longer than 10) the animals are exsanguinated by cardiac puncture or abdominal aorta cannulation under ether or pentobarbital anesthesia. The collected whole blood is allowed to clot, the serum separated by centrifugation and the individual serum samples stored frozen until assayed for IgE content.
Individual serum samples should be screened for reaginic antibody concentration before being pooled with other sera, as not all rats respond to immunization procedures with reagin production. A 1:50 saline dilution of serum from each immunized rat is used for this purpose. Intradermal injections of 0.05 ml. of the diluted sera are made in the shaven backs of two small female recipient rats, 100-120 gms. Several serum samples can be tested simultaneously in recipient animals. After a 24 to 48 hour latent period antigen challenge is accomplished by intravenous administration to each rat of 1 mg. DNP-d EA in 0.5 ml. 0.5% Evans' blue dye in saline. Sera which show positive PCA reactions at the 1:50 dilution, as measured 20 to 30 minutes post-challenge are pooled, dispensed in small aliquots and stored at -70° C. or lower until used. Negative sera may be discarded.
The IgE titer of the antisera pool should then be determined. […]

In data set [2] the test system is release of mediators, e.g. histamine and SRS-A. The note with it: administered to asthmatic patients prior to inhalation of specific antigens; cited from earlier work.
The conditions of data set [3]: cited from earlier work.
[4] abbreviates: iv, 1-5 minutes prior to antigen challenge (DSCG: at the time of antigen challenge), read-out: Rat PCA Test ID50, i.v. (dose of compound that inhibits 50% of the response).
[5] abbreviates: po, 10 minutes prior to antigen challenge, Table II and its footnote, read-out: Rat PCA Test ID50, p.o. (dose of compound that inhibits 50% of the response).
Setting [6] is: po, 10 minutes prior to antigen challenge, Table 1, read-out: Rat PCA Test ID50, p.o. (dose of compound that inhibits 50% of the response).

As to `O=C(O)c1cc(=O)c2c(OCC(O)COc3cccc4oc(C(=O)O)cc(=O)c34)cccc2o1` [DSCG, disodium cromoglycate, reference compound], the ED50 in data set [1] (setting [4]) is 0.6 mg/kg; in data set [1] (setting [5]), above 30 mg/kg; in data set [1] (po, DSCG dosed 30 minutes prior to challenge, Table 1, read-out: Rat PCA Test ID50, p.o. (DSCG)), above 30 mg/kg. Further, in data set [2], the “inhibition of release of mediators, e.g. histamine and SRS-A” value was “inhibits the release of mediators”. Also, the oral absorption result in data set [3] is “not orally absorbed”.
Regarding `COc1ccc2c(c1)CCn1c-2ncc(C(=O)O)c1=O` [Example 11A, 6,7-dihydro-9-methoxy-4-oxo-4H-pyrimido[2,1-a]isoquinoline-3-carboxylic Acid], the ED50 in data set [1] (setting [6]) was 2.6 mg/kg.
With `COc1ccc2c(c1)-c1ncc(C(=O)O)c(=O)n1CC2` [Example 11B, 6,7-dihydro-10-methoxy-4-oxo-4H-pyrimido[2,1-a]isoquinoline-3-carboxylicAcid], in data set [1] (setting [6]), the ED50 is around 0.48 mg/kg.
Regarding `COc1cc2c(cc1OC)-c1ncc(C(=O)O)c(=O)n1CC2` [Example 11D, 6,7-dihydro-9,10-dimethoxy-4-oxo-4H-pyrimido[2,1-a]isoquinoline-3-carboxylic Acid], in data set [1] (setting [6]), the ED50 was around 0.31 mg/kg.
On to `CCOC(=O)c1cnc2c3ccc(OC)cc3ccn2c1=O` [Example 12, Ethyl 9-Methoxy-4-oxo-4H-pyrimido[2,1-a]isoquinoline-3-carboxylate], for which, in data set [1] (setting [5]), the ED50 is around 31 mg/kg.
On to `CCOC(=O)c1cnc2c3cc(OC)ccc3ccn2c1=O` [Example 13A, ethyl 10-Methoxy-4-oxo-4H-pyrimido[2,1-a]isoquinoline-3-carboxylate], for which the ED50 in data set [1] (setting [5]) is around 0.9 mg/kg.
With `CCOC(=O)c1cnc2c3ccccc3c(CC)cn2c1=O` [Example 13B, ethyl 7-Ethyl-4-oxo-4H-pyrimido[2,1-a]isoquinoline-3-carboxylate], the ED50 in data set [1] (setting [5]) was around 5 mg/kg.
Turning to `CCOC(=O)c1cnc2c3cc(OC)c(OC)cc3ccn2c1=O` [Example 13C, ethyl 9,10-Dimethoxy-4-oxo-4H-pyrimido[2,1-a]isoquinoline-3-carboxylate], the ED50 in data set [1] (setting [5]) was around 2.63 mg/kg.
`C=CCc1cn2c(=O)c(C(=O)OCC)cnc2c2cc(OC)ccc12` [Example 14, Ethyl 7-Allyl-10-methoxy-4-oxo-4H-pyrimido[2,1-a]isoquinoline-3-carboxylate]: the ED50 in data set [1] (setting [5]) was above 5 mg/kg.
As to `CCCc1cn2c(=O)c(C(=O)OCC)cnc2c2cc(OC)ccc12` [Example 15, Ethyl 10-Methoxy-4-oxo-7-propyl-4H-pyrimido[2,1-a]isoquinoline-3-carboxylate], in data set [1] (setting [5]), the ED50 was around 16 mg/kg.
With `COc1ccc2ccn3c(=O)c(C(=O)O)cnc3c2c1` [Example 16, 10-Methoxy-4-oxo-4H-pyrimido[2,1-a]isoquinoline-3-carboxylic acid], the ED50 in data set [1] (setting [4]) is around 1 mg/kg.
Consider `CCc1cn2c(=O)c(C(=O)O)cnc2c2ccccc12` [Example 17A, 7-ethyl-4-oxo-4H-pyrimido[2,1-a]isoquinoline-3-carboxylic Acid], for which the ED50 in data set [1] (setting [4]) is around 0.048 mg/kg.
Consider `COc1cc2ccn3c(=O)c(C(=O)O)cnc3c2cc1OC` [Example 17B, 9,10-dimethoxy-4-oxo-4H-pyrimido[2,1-a]isoquinoline-3-carboxylic Acid], for which, in data set [1] (setting [5]), the ED50 is around 0.01 mg/kg.
As to `C=CCc1cn2c(=O)c(C(=O)O)cnc2c2cc(OC)ccc12` [Example 17C, 7-allyl-10-methoxy-4-oxo-4H-pyrimido[2,1-a]isoquinoline-3-carboxylic Acid], the ED50 in data set [1] (setting [4]) was around 0.53 mg/kg.
Still for that read-out and setting: next, `CCCc1cn2c(=O)c(C(=O)O)cnc2c2cc(OC)ccc12` [Example 17D, 10-methoxy-4-oxo-7-propyl-4H-pyrimido[2,1-a]isoquinoline-3-carboxylic Acid]: around 0.071 mg/kg.
As to `COc1ccc2c(ccn3c(=O)c(C(=O)O)cnc23)c1` [Example 18, 9-Methoxy-4-oxo-4H-pyrimido[2,1-a]isoquinoline-3-carboxylic Acid], the ED50 in data set [1] (setting [4]) is around 1.5 mg/kg.
On to `O=C(O)c1cnc2n(c1=O)CCc1ccc(O)cc1-2` [Example 19, 6,7-Dihydro-10-hydroxy-4-oxo-4H-pyrimido[2,1-a]isoquinoline-3-carboxylic Acid], for which the ED50 in data set [1] (setting [6]) is around 1.2 mg/kg.
Still for that read-out and setting: the result for `O=C(O)c1cnc2n(c1=O)CCc1cc(O)c(O)cc1-2` [Example 20, 6,7-Dihydro-9,10-dihydroxy-4-oxo-4H-pyrimido[2,1-a]isoquinoline-3-carboxylic Acid] reads around 0.077 mg/kg; that for `CC(C)C(=O)Oc1ccc2c(c1)-c1ncc(C(=O)O)c(=O)n1CC2` [Example 21, 10-Isobutyryloxy-6,7-dihydro-4-oxo-4H-pyrimido[2,1-a]isoquinoline-3-carboxylic Acid], around 0.5 mg/kg.
For the molecule `COc1cc2c(cc1OC)-c1ncc(-c3nnn[nH]3)c(=O)n1CC2` [Example 24, 6,7-Dihydro-9,10-dimethoxy-3-(1H-tetrazol-5-yl)-4H-pyrimido[2,1-a]isoquinol-4-one], in data set [1] (setting [6]), the ED50 is around 0.03 mg/kg.
As to `CCc1cn2c(=O)c(-c3nnn[nH]3)cnc2c2ccccc12` [Example 25, 7-Ethyl-3-(1H-tetrazol-5-yl)-4H-pyrimido[2,1-a]isoquinol-4-one], the ED50 in data set [1] (setting [4]) is 0.009 mg/kg; in data set [1] (setting [5]), 0.04 mg/kg.
